Measurements published in patent publication US4939177A, “Use of avarol for the control of AIDS and ARC” (Merz + Co. GmbH & Co., priority 1986, dated 1990).

Assays:
normal T-lymphocytes = conditions: cited from earlier work
[1] = Chemical nature and biological activity of radioactive product in rat blood (HPLC; L5178y system); type: in vivo; conditions: iv, after circulation in the body for 22 hours, read-out: modification to a biologically-inactive form
Procedure: These concentrations were determined on the basis of radioactivity. Moreover, the chemical nature of the radioactive product was identified by high-pressure liquid chromatography and found to consist of over 90% of Avarol. In addition, the biological activity of the compound in the blood was determined after extraction with ethyl acetate and estimated in the L5178y cell system in vitro (Muller, W.E.G. et al.; Comp. Biochem. Physiol. 80C, 47-52; 1985). Using this system, the biological activity of the compound, present in the blood, was determined and converted on a gram basis. Using this approach the concentration in the blood was only 5-15% lower than that determined on the basis of radioactivity.

IgG titer = test: Serum IgG titer of SRBC-immunized mice; type: in vivo, mouse; conditions: 30 mg/kg i.p., untreated 4
Procedure: The plaque test of Jerne and Nordin (Science 140: 405-406, 1963) was used with the modification given by Cunningham and Szenberg (Immunolog. 14: 599-601; 1968). Briefly, 8 male NMRI mice per group (20-22 g) were immunized on day 0 by i.p. injection of 5×10^8 SRBC in 0.5 ml saline. Treatment with avarol was done i.p. either from day 0 to day +4 or from day -4 to day 0. One hour after the last drug administration, the animals were killed by a blow on the head and bled. The spleens were removed and a single cell suspension was prepared by teasing the pooled spleens through a 120-μm mesh sieve. After lysing the erythrocytes by 0.15M NH4 Cl, the cells were washed twice in Hank's balanced salt solution containing 29 ml of 7.5% NaHCO3 and 10 ml of 1M HEPES buffer solution per one liter. The cells were resuspended in 2 ml per spleen. Six Cunningham chambers per group were filled with a mixture of 0.5 ml of a suitable dilution of spleen cells (generally 1:100), 0.5 ml of a suspension of SRBC (10^9 /ml) and 125 μl of normal guinea pig complement. After 90-120 min of incubation at 37° C., the number of plaques was counted. Plaques per spleen or per 10^6 spleen cells were calculated.
The pooled blood of 8 mice was centrifuged to obtain the serum. IgM and IgG titers were measured with the mercaptoethanol method (Hudson, L. and Hay, F. C. Practical Immunology, Blackwell Sci., Oxford; 1983).

HTLV-III p15 = HTLV-III p15 expression in H9-HTLV-III cells, immunofluorescence; type: cell-based; conditions: for Expression of p15 (in %): none = 100
Procedure: (§1) H9-cells (M. Popovic, M. G. Sarngadharan, E. Reed, R. C. Gallo, Science: 224, 1984, 497-500) were treated with Polybren® (hexadimethrinbromide available on the market; 2 μg/ml) for 30 minutes at 37° C., washed free of Polybren and infected with 2×10^8 HTLV-III virus particles (isolated from H9 cell cultures by the method of M. Popovic; see above) per 4×10^5 H9 cells. Some assays which were not treated with drugs were used as positive controls, while different concentrations of the compound to be tested (avarone or avarol and their derivatives) were added to the test samples. The HTLV-III reverse transcriptase activity of these cultures was analyzed in the manner described above.
The immunofluorescence assays were carried out on methanol:acetone (1:1)-fixed cells with the use of monoclonal antibodies (from the mouse) against HTLV-III p15 (core protein of MW=15,000) and p24 (core protein of MW=24,000). Both of these proteins are marker proteins which indicate the presence of virus particles in the cells. The HTLV-III Infected cells with or without drug treatment were fixed on toxoplasmosis slides. After fixation with methanol-acetone (1:1) for 30 minutes at room temperature, the slides were stored in sealed plastic containers at -20° C. until use. The monoclonal antibodies were added to the cells, incubated at room temperature in a moisture chamber for one hour and washed for two hours with PBS (phospate buffered saline) containing 0.25% Triton X-100. The cells were then treated for one hour with fluorescein (FITC) labeled goat anti-mouse IgG (Capell Labs.) and washed overnight with PBS buffer containing 0.25% Triton X-100. Fifty percent glycerin was added to the slides and the cell fluorescence was determined with a Zeiss fluorescence microscope.
When the target H9-cells were treated with the HTLV-III isolate and cultivated without the compounds to be tested, the H9-cells were infected and, as established by indirect immunofluorescence assay, there was expression of the p24 and p15 protein. After incubation of the H9-HTLV-III cells with the compounds to be tested, a practically complete protective effect was observed.

[2] = system: DTH to sheep red blood cells (SRBC) in NMRI mice; test: Delayed-type hypersensitivity to sheep red blood cells; type: in vivo, mouse
Procedure: DTH was produced according to the method of Lagrange et al. (J. Exp. Med. 139: 528-542; 1974) and Liew (Eur. J. Immunol. 7, 714-718; 1977). Male NMRI mice (20-23 g, 10 animals/group) were immunized with 10^8 SRBC/40 μl into one foot pad (day 0). Four days later 10^9 SRBC/40 μl were injected into the other foot pad. After 24 hours, paw size was measured with a dial gauge caliper Odi-Test OOT (H. C. Kroeplin, Schluchtern, Germany). Avarol (in 0.15% [w/v] methylcellulose) was administered daily i.p. either from day -2 to +1 or from day +2 to +4. The level of DTH was expressed as foot pad increase, determined after 24 hrs; and it is given in mm. Non-treated groups were injected i.p. with methylcellulose only. Treated groups were compared with the controls using the U-test of Wilcoxon et al. (Sachs, L. Angewandte Statistik, Springer-Verlag, Berlin; 1984).

[3] = system: Arthus reaction in Sprague-Dawley rats; test: Antibody mediated hypersensitivity (modified active Arthus reaction, ovalbumin); type: in vivo, rat
[4] = system: H9-cells infected with HTLV-III; test: Growth of HTLV-III infected H9 cells; type: cell-based, human; conditions: for Cell Concentration: infected H9 cells, four days, controls infected 0.5, uninfected 1.3
Procedure: For this, the H9 cell line was used, it consisting of a cloned OKT4+ T-cell line in which the AIDS virus propagates (M. Popovic, M. G. Sarngadharan, E. Reed and R. C. Gallo; Science 224, 497-500 (1984)).
as §1
H9-cells as well as H9-cells infected with HTLV-III were used in a concentration of 0.2×10^6 cells/ml of culture medium for the inoculating of a culture medium. After incubation for four days, the density of the H9-cells was 1.3×10^6 cells/ml, while the density of the H9-cells infected with HTLV-III was only 0.5×10^6 cells/ml; these two values formed the control values.
Thereupon samples of H9-HTLV-III cells, 0.2×10^6 cells/ml, were treated for four days with different concentrations of avarol.

For `CC1=CCC[C@H]2[C@](C)(Cc3cc(O)ccc3O)[C@@H](C)CC[C@]12C` [Avarol, 2-[(1R)-1,2,3,4,4a,7,8,8aα-octahydro-1β,2β,4aβ,5-tetramethyl-1-naphthylmethyl]-1,4-benzenediol], which “concentration inhibiting [^3 H] dThd-incorporation rate by 50%” value (normal T-lymphocytes) is on record?
The value was 0.5 to 1.3 µg/mL.

What about the metabolised at 22 h [1] of the same compound?
Its metabolised at 22 h is no more than 15%.

What about the “Titer IgG” value (IgG titer; from 0 to +4 days) of the same compound?
The value was 2.

And the “Titer IgG” value (IgG titer; from -4 to 0 days)?
Its value is 4.

And the “Expression of p15 (in %)” value (HTLV-III p15; 0.1 μg/ml)?
The value was 37%.

What about the “Expression of p15 (in %)” value (HTLV-III p15; 1 μg/ml) of the same compound?
The value was 12%.

And the “Expression of p15 (in %)” value (HTLV-III p15; 5 μg/ml)?
The value was 12%.

What about the “expression of HTLV-III protein p15, in words” value (HTLV-III p15; H9-HTLV-III cells) of the same compound?
The value was “significant reduction”.

What about the “DTH to SRBC, immunosuppressive influence” value ([2]; day +2 to +4, doses higher than 10 mg/kg i.p.) of the same compound?
Its value is “weak but significant immunosuppressive effect”.

And the “DTH to SRBC, immunosuppressive influence” value ([2]; day -2 to +1, up to daily doses of 30 mg/kg i.p.)?
Its value is “no significant immunosuppressive influence”.

And the “Arthus reaction, in words” value ([3]; 30 mg/kg, 24 hours and 30 minutes before challenge, P>0.05)?
The value was “weak suppression of the reaction”.

And the “Arthus reaction, in words” value ([3]; 3-30 mg/kg i.p., day -1 to +2, day +18 to +21, or immediately before challenge)?
The value was “no significant suppression of the Arthus reaction”.

And the “growth rate of H9-HTLV-III cells” value ([4]; about 0.01 μg/ml)?
The value was “increase the growth rate of H9-HTLV-III cells to values which lie within the range of the control”.

What about the “Cell Concentration” value ([4]; 0.1 μg/ml) of the same compound?
The value was 1.42e+06 mL⁻¹.

And the “Cell Concentration” value ([4]; 1 μg/ml)?
The value was 1.09e+06 mL⁻¹.
